Experimental data: patent publication US11147848B2, “Extracts and isolated compounds from Cakile arabica for treatment of ulcer” (KING SAUD UNIVERSITY, priority 2013, dated 2021)
“And” between values parts separate entries of the source, which are not always exact repeats. Equal values may be shown once.

System: absolute ethanol-induced ulcer
Assay: absolute ethanol-induced ulcer model (anti-ulcerogenic activity)
Format: in vivo, Wistar rats
Settings: rats, oral, ranitidine 100 mg/kg, TAE 1000 mg/kg, 1 and 2 50 mg/kg; for score (lesion score): scoring system 0-5; for score (lesion score) / No. of ulcers / ulcer index: n = 6; for No. of ulcers / ulcer index: mean ± SD
Method: Evaluation of the anti-ulcerogenic activity was carried out using absolute ethanol-induced ulcer model as described by Muthu et al. Int. J. Pharm. Pharm. Sci. 2013, 5, Suppl1, 269-272.
About 30 Wistar rats were used, they divided into 5 groups each of 6 rats. Group 1 received the vehicle and served as control group, group 2 received ranitidine (100 mg/kg) and served as standard group, groups 3 received the total alcohol extract of the plant under investigation at a dose of 1000 mg/kg. groups 4 and 5 received the isolated compounds 1 and 2 at dose 50 mg/kg respectively.
Rats of all groups were fasted for 24 h then all medications were administered orally. One hour after treatment, the animals received an oral dose of absolute ethanol (1 ml/200 g) and then sacrificed one hour later, by ether inhalation, the stomachs were rapidly removed, opened along their greater curvature and gently rinsed under running tap water.
Number of lesions in the glandular part of the stomach were measured under an illuminated magnifying microscope (10×). Long lesions were counted and their lengths were measured. Petechial lesions were counted, and then each five petechial lesions were taken as 1 mm of ulcer.
The lesion scores: the mucosal lesions were quantified by the scoring system (0-5) 0=no damage, 1=Local edema and inflammation without ulcers; 2=One ulcer without inflammation; 3=one to two ulcers with inflammation & lesion diameter <1 cm; 4=More than two ulcers with lesion diameter 1-2 cm; 5=Sever ulceration with lesion diameter >2 cm.
Ulcer index To calculate the ulcer index (mm), the sum of the total length of long ulcers and petechial lesions in each group of rats was divided by its number. The curative ratio was determined according to the formula: % Protection of control ulcer=Control UI−Test UI/Control UI×100

Structure (SMILES)	score (lesion score)	% protection of control ulcer	No. of ulcers	ulcer index [mm]	% protection of control ulcer (listed as ranitidine)
CCCCOC(=O)C(O)CCC(=O)O (stereo not shown) [Compound 2, 4-hydroxy-5-n-butoxy-5-oxopentanoic acid]	2	55.5% and 55.3%	3.6± 2.97	5.8 ± 3.42	–
CCCCCCCCCCCCCCCCCCCCCCCC(=O)O [Compound 1, tetracosanoic acid]	1	80%	2 ± 2.74	2.6 ± 3.58	–
CNC(=C[N+](=O)[O-])NCCSCc1ccc(CN(C)C)o1 [Ranitidine, ranitidine, reference compound]	2.2	46.2%	7.2 ± 0.84	7 ± 1.58	46.2% and 44.6%
